Test results as given in article PMC5681660, “Reduced hepatitis B and D viral entry using clinically applied drugs as novel inhibitors of the bile acid transporter NTCP” (Scientific Reports, 2017).
Counter-ions that a name gives are not always drawn.

Molecular target: T1, human NTCP (Homo sapiens, UniProt Q14973)
T1 sequence (Q14973 1-349): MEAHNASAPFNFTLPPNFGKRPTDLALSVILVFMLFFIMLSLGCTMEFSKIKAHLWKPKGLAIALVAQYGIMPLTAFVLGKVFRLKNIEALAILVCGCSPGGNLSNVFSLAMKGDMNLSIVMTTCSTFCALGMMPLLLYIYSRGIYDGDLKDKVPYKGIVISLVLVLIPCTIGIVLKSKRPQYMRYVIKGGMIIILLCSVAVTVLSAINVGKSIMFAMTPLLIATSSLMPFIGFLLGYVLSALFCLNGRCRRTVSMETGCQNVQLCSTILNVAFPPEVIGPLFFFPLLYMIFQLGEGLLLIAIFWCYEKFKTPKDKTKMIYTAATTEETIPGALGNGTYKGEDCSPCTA
Assay: Screening taurocholate uptake assay (96-well, [14C]taurocholate, 10 µM drug)
Details: for B-score functional assay: screening taurocholate uptake, 10 µM drug

[1] = ranking over the functional and the binding screening assay
[2] = combined ranking of functional and binding screening assays

Row | Compound | Ranking score [1] | B-score functional assay | Ranking score [2] | B-score functional assay (B-score)
1 | CN(C)C(=O)Oc1cc(OC(=O)N(C)C)cc(C(O)CNC(C)(C)C)c1.Cl (stereo not drawn) [Bambuterol hydrochloride] |  | -0.006 | 562.701 | 
2 | CCC1(C)CC(=O)NC(=O)C1 [Bemegride] | 76.1315 | -2.979 |  | 
3 | NC(CO)C(=O)NNCc1ccc(O)c(O)c1O (stereo not drawn) [Benserazide hydrochloride] |  | -0.402 | 520.826 | 
4 | NC(=NCc1ccccc1)NC(=O)c1nc(Cl)c(N)nc1N [Benzamil hydrochloride] |  | -0.089 | 519.299 | 
5 | CCc1oc2ccccc2c1C(=O)c1cc(Br)c(O)c(Br)c1 [Benzbromarone] | 148.825 | -5.011 |  | 
6 | CCOC(=O)c1ccc(N)cc1 [Benzocaine] | 153.542 | -1.326 |  | 
7 | CN1[C@@H]2CC[C@H]1C[C@@H](OC(c1ccccc1)c1ccccc1)C2 [Benztropine mesylate] |  | -0.008 | 529.655 | 
8 | CN(C)CCCOc1nn(Cc2ccccc2)c2ccccc12 [Benzydamine hydrochloride] |  | 0.075 | 571.97 | 
9 | C/C=C(\C)C(=O)O[C@H]1[C@H](OC(C)=O)[C@@]2(CO)C(CC1(C)C)C1=CC[C@@H]3[C@@]4(C)CC[C@H](O[C@@H]5O[C@H](C(=O)O)[C@@H](O[C@@H]6O[C@H](CO)[C@@H](O)[C@H](O)[C@H]6O)[C@H](O)[C@H]5O[C@@H]5O[C@H](CO)[C@@H](O)[C@H](O)[C@H]5O)[C@H](CO)C4CC[C@@]3(C)[C@@]1(C)C[C@H]2O (stereo partly drawn) [Beta-Escin] | 8.485 | -8.059 |  | 
10 | CNCCc1ccccn1.CS(=O)(=O)O.CS(=O)(=O)O [Betahistine mesylate] | 145.348 | -5.129 |  | 
11 | CC(C)NCC(O)COc1ccc(CCOCC2CC2)cc1 (stereo not drawn) [Betaxolol hydrochloride] |  | 0.038 | 583.493 | 
12 | CC(O)(CS(=O)(=O)c1ccc(F)cc1)C(=O)Nc1ccc(C#N)c(C(F)(F)F)c1 (stereo not drawn) [Bicalutamide] | 258.616 | -0.361 |  | 
13 | O=C(O)CCCC[C@@H]1SC[C@@H]2NC(=O)N[C@@H]21 [Biotin] | 66.9328 | -2.274 |  | 
14 | CC(C)NCC(O)COc1ccc(COCCOC(C)C)cc1 (stereo not drawn) [Bisoprolol fumarate] | 263.481 | 0.023 |  | 
15 | CN(Cc1cc(Br)cc(Br)c1N)C1CCCCC1 [Bromhexine hydrochloride] | 149.492 | -0.767 |  | 
16 | CCCC(=O)Nc1ncnc2c1ncn2[C@@H]1O[C@@H]2COP(=O)([O-])O[C@H]2[C@H]1OC(=O)CCC.[Na+] [Bucladesine sodium salt] |  | -0.403 | 477.022 | 
17 | CCCCOc1ccc(CC(=O)NO)cc1 [Bufexamac] | 265.556 | -0.678 |  | 
18 | CCCCN1CCCCC1C(=O)Nc1c(C)cccc1C (stereo not drawn) [Bupivacaine hydrochloride] | 231.991 | -1.136 |  | 
19 | CC(NC(C)(C)C)C(=O)c1cccc(Cl)c1 (stereo not drawn) [Bupropion hydrochloride] |  | 0.583 | 557.749 | 
20 | O=C1CC2(CCCC2)CC(=O)N1CCCCN1CCN(c2ncccn2)CC1 [Buspirone hydrochloride] | 215.998 | -0.772 |  | 
21 | CS(=O)(=O)OCCCCOS(C)(=O)=O [Busulfan] | 269.796 | -1.026 |  | 
22 | Clc1ccc(CCC(Cn2ccnc2)Sc2c(Cl)cccc2Cl)cc1 (stereo not drawn) [Butoconazole nitrate] | 196.25 | -3.692 |  | 
23 | C=C1/C(=C\C=C2/CCC[C@]3(C)[C@@H]([C@H](C)/C=C/[C@@H](O)C4CC4)CC[C@@H]23)C[C@@H](O)C[C@@H]1O [Calcipotriene] | 164.682 | -4.364 |  | 
24 | C[N+](C)(C)CCOC(N)=O [Carbachol] |  | 0.619 | 511.9 | 
25 | CCOC(=O)n1ccn(C)c1=S [Carbimazole] | 161.053 | -0.455 |  | 
26 | C[C@H](CCC(=O)O)[C@H]1CC[C@H]2[C@@H]3[C@H](O)C[C@@H]4C[C@H](O)CC[C@]4(C)[C@H]3CC[C@]12C [Chenodiol] | 40.9878 | -1.277 |  | 
27 | O=C(O)CCCc1ccc(N(CCCl)CCCl)cc1 [Chlorambucil] | 169.183 | -1.869 |  | 

Further lines, results first:

Row | Ranking score [1] | B-score functional assay | Ranking score [2] | B-score functional assay (B-score) | Compound
28 | 129.337 | -0.407 |  |  | CC1(C)S[C@@H]2[C@H](NC(=O)[C@H](NC(=O)N3CCNC3=O)c3ccccc3)C(=O)N2[C@H]1C(=O)O [Azlocillin sodium salt]
29 |  | -0.626 | 500.635 |  | CCOC(=O)OC(C)OC(=O)[C@@H]1N2C(=O)[C@@H](NC(=O)[C@H](N)c3ccccc3)[C@H]2SC1(C)C (stereo partly drawn) [Bacampicillin hydrochloride]
30 | 123.665 | -3.95 |  |  | CCC(=O)OCC(=O)[C@@]1(OC(=O)CC)[C@@H](C)C[C@H]2[C@@H]3CCC4=CC(=O)C=C[C@]4(C)[C@@]3(Cl)[C@@H](O)C[C@@]21C [Beclomethasone dipropionate]
31 |  | -0.56 | 532.072 |  | C/C(=C(\CCOP(=O)(O)O)SC(=O)c1ccccc1)N(C=O)Cc1cnc(C)nc1N [Benfotiamine]
32 | 164.499 | -2.294 |  |  | c1ccc(-c2ccc(C(c3ccccc3)n3ccnc3)cc2)cc1 (stereo not drawn) [Bifonazole]
33 |  | -0.229 | 526.369 |  | OC(CCN1CCCCC1)(c1ccccc1)C1CC2C=CC1C2 (stereo not drawn) [Biperiden hydrochloride]
34 | 63 | -3.114 |  |  | CC(=O)Oc1ccc(C(c2ccc(OC(C)=O)cc2)c2ccccn2)cc1 [Bisacodyl]
35 |  | -0.661 | 520.776 |  | CN(C)CCC(c1ccc(Br)cc1)c1ccccn1 (stereo not drawn) [Brompheniramine maleate]
36 |  | -0.64 | 628.462 |  | CCCC1O[C@@H]2C[C@H]3[C@@H]4CCC5=CC(=O)C=C[C@]5(C)[C@H]4[C@@H](O)C[C@]3(C)[C@]2(C(=O)CO)O1 (stereo partly drawn) [Budesonide]
37 | 79.4984 | -5.734 |  |  | CC1(C)[C@@H](OC(=O)CCC(=O)O)CC[C@]2(C)[C@H]3C(=O)C=C4[C@@H]5C[C@@](C)(C(=O)O)CC[C@]5(C)CC[C@@]4(C)[C@]3(C)CC[C@@H]12 [Carbenoxolone disodium salt]
38 |  | 0.686 | 597.675 |  | C[C@@](Cc1ccc(O)c(O)c1)(NN)C(=O)O [Carbidopa]
39 |  | -0.486 | 570.247 |  | CC(C)(C)NCC(O)COc1cccc2c1CCC(=O)N2 (stereo not drawn) [Carteolol hydrochloride]
40 |  | -0.454 | 598.124 |  | C=CC1=C(C(=O)O)N2C(=O)[C@@H](NC(=O)/C(=N\O)c3csc(N)n3)[C@H]2SC1 [Cefdinir]
41 |  |  | 1157.98 | 1.484 | CO/N=C(\C(=O)N[C@@H]1C(=O)N2C(C(=O)O)=C(C[N+]3(C)CCCC3)CS[C@H]12)c1csc(N)n1 [Cefepime hydrochloride]
42 | 185.952 | -2.268 |  |  | C=CC1=C(C(=O)O)N2C(=O)[C@@H](NC(=O)/C(=N\OCC(=O)O)c3csc(N)n3)[C@H]2SC1 [Cefixime]
43 | 266.713 | -1.174 |  |  | CO[C@@]1(NC(=O)CSCC#N)C(=O)N2C(C(=O)O)=C(CSc3nnnn3C)CS[C@@H]21 [Cefmetazole sodium salt]
44 |  |  | 1237.77 | 3.778 | NCc1ccccc1CC(=O)N[C@@H]1C(=O)N2C(C(=O)O)=C(CSc3nnnn3CC(=O)O)CS[C@H]12 [Ceforanide]
45 | 197.995 | 1.511 |  |  | CN(C)CCn1nnnc1SCC1=C(C(=O)O)N2C(=O)[C@@H](NC(=O)Cc3csc(N)n3)[C@H]2SC1 [Cefotiam hydrochloride]
46 | 261.897 | -1.403 |  |  | Cc1cc(O)c(C(=O)N[C@@H](C(=O)N[C@@H]2C(=O)N3C(C(=O)O)=C(CSc4nnnn4C)CS[C@H]23)c2ccc(O)cc2)cn1 [Cefpiramide]
47 |  | -0.201 | 640.176 |  | COCC1=C(C(=O)OC(C)OC(=O)OC(C)C)N2C(=O)[C@@H](NC(=O)/C(=N\OC)c3csc(N)n3)[C@H]2SC1 (stereo partly drawn) [Cefpodoxime proxetil]
48 |  | -1.028 | 560.357 |  | CC(C)(O/N=C(\C(=O)N[C@@H]1C(=O)N2C(C(=O)[O-])=C(C[n+]3ccccc3)CS[C@H]12)c1csc(N)n1)C(=O)O [Ceftazidime pentahydrate]
49 |  | -0.317 | 621.898 |  | CO/N=C(\C(=O)N[C@@H]1C(=O)N2C(C(=O)OC(C)OC(C)=O)=C(COC(N)=O)CS[C@H]12)c1ccco1 (stereo partly drawn) [Cefuroxime axetil]
50 |  | 2.451 | 594.757 |  | O=C(N[C@H](CO)[C@H](O)c1ccc([N+](=O)[O-])cc1)C(Cl)Cl [Chloramphenicol]
51 |  |  | 1232.56 | 4.014 | CN1CCN(C(c2ccccc2)c2ccc(Cl)cc2)CC1 (stereo not drawn) [Chlorcyclizine hydrochloride]
